Measurements from patent US4369120A, “Refrigeration liquid with leak indicator and process of using same” (priority 1981, dated 1983).

How the values were obtained:
[1] = Sealed tube test of stability of dyes in refrigerant/refrigeration oil with metal coupons; format: physicochemical; conditions: for Stability, Mean Life: Table I, sealed tube data in R-12 at 350° F.; for stability in the sealed tube test (in words): 350° F., Table I dyes
Protocol: By reference to Table I below it can be appreciated that such ortho substitution has a remarkably beneficial effect on the stability of the dyes in the accelerated sealed tube test used for evaluation. The first three dyes listed, embodying the principles of this invention, routinely withstand in excess of twenty days in the sealed tube test at 350° F. (176.7° C.), equivalent to many years of normal use in a refrigeration system.
The sealed tube test serves as a method of evaluating in an accelerated manner interactions of materials found in a refrigeration system.
Glass tubes and all metal test coupons are scrupulously cleaned. Test refrigerants are distilled to minimize moisture contamination. Moisture is removed from the refrigeration test oil "Suniso" 3GS by subjecting the oil to a vacuum with slight stirring and heating. Ratios of refrigerant/refrigerant oil range from 1:1 to 1:2 by weight.
Refrigerant oil and representative metal coupons of copper #10AWG wire, Swedish valve stock steel, and aluminum metal sheet are placed in a glass tube along with the subject test dye material (0.25-1.0% wt/wt) dissolved in the refrigerant oil. Like samples without the subject dye are analyzed as controls.
The tube and its contents are chilled in a liquid nitrogen bath while the refrigerant is condensed into the tube via a calibrated manometer. The tube is sealed under a vacuum of at least 0.1 torr.
Glass tubes and contents are subjected to uniform heating in a bored aluminum block placed in a temperature-programmed oven.
The oven temperatures used vary according to the test refrigerant, as indicated:
The test is run for one of the following time periods: 5, 14, 21, 30 or 60 days.
The tube contents may be evaluated by several methods:
of these methods, the visual examination is the most rapid and the only qualitative method. Any color change in the subject dye coloration is noted when compared to a control sample.
The quantitative methods involve analysis for decomposition products of chloride as hydrochloric acid or organic products by gas chromatography, infrared spectroscopy, or mass spectroscopy. However, visual inspection and gas chromatography are widely used, and they were selected as standardization procedures for evaluation of sealed tube contents.
R-12 is chemically one of the more reactive refrigerants; thus, short term tests with refrigeration liquids containing this refrigerant admixed with a mineral oil yield the most rapid results. R-22 and R-502 are also used but the decomposition products are more difficult to analyze by gas chromatography. Ultimately the test material must pass interactions involving any of these refrigerants. The visual method can be used empirically on a pass-fail basis. As verified experimentally, visual results are considered as valid as instrumental methods.

[2] = Solubility of dyes in refrigeration oils; conditions: Table I, Suniso 3GS refrigeration oil
Protocol: Manufacturers of refrigeration equipment generally demand that any refrigeration liquid satisfactorily pass such a sealed tube test before they approve the liquid for use in their equipment. In addition, the solubility of the various dyes in oil and in refrigerant were determined.
Solubility of various dyes in various refrigeration oils was carefully determined according to the following standardized procedure. An excess of the subject dye was added to a given weight (e.g., 100 g) of refrigerant oil. The mixture was stirred for one-half hour with mild heating, whereupon it was cooled to room temperature (about 21° C.) and transferred to a centrifuge tube. The mixture was centrifuged approximately 15 minutes at 1000 rpm. A sample of the supernatant liquid was decanted (1.00 g±0.01 g) and diluted to 100 ml volume with methylene chloride. Aliquot portions were taken and read against the principal absorption peaks by visible light spectroscopy. Wt/wt percentage concentrations were then calculated from proper standard curves.

Row | SMILES | Stability, Mean Life [1] | Oil Sol. In 3GS [2] | stability in the sealed tube test (in words) [1]
1 | CCCCc1ccc(Nc2ccc(Nc3ccc(CCCC)cc3)c3c2C(=O)c2ccccc2C3=O)cc1 [Dye No. 4-1, 1,4-Bis(4-n-butylanilino)] | 9.5 days | < 1.0% | 
2 | O=C1c2ccccc2C(=O)c2c(Nc3ccc(C4CCCCC4)cc3)ccc(Nc3ccc(C4CCCCC4)cc3)c21 [Dye No. 5-5, 1,4-Bis(4-cyclohexylanilino)] | 9.7 days | 0.1% | 
3 | CC(C)(C)c1ccc(Nc2ccc(Nc3ccc(C(C)(C)C)cc3)c3c2C(=O)c2ccccc2C3=O)cc1 [Dye No. 6-21, 1,4-Bis(4-t-butylanilino)] | 8.7 days | 1.0% | 
4 | CCOc1ccc(Nc2ccc(Nc3ccc(OCC)cc3)c3c2C(=O)c2ccccc2C3=O)cc1 [Dye No. 7-3, 1,4-Bis(4-ethoxyanilino)] | 8.5 days | < 1.0% | 
5 | CCCCOc1ccc(Nc2ccc(Nc3ccc(OCCCC)cc3)c3c2C(=O)c2ccccc2C3=O)cc1 [Dye No. 8-2, 1,4-Bis(4-n-butoxyanilino)] | 8.6 days | 0.02% | 
6 | O=C1c2ccccc2C(=O)c2c(NCCc3ccccc3)ccc(NCCc3ccccc3)c21 [Dye No. 9-8, 1,4-Bis(β-phenethylamino)] | 4.4 days | 0.1% | 
7 | O=C1c2ccccc2C(=O)c2c(NCc3ccccc3)ccc(NCc3ccccc3)c21 [Dye No. 10-19, 1,4-Bis(benzylamino)] | 4.5 days | < 0.25% | 
8 | CC(Nc1ccc(NC(C)c2ccccc2)c2c1C(=O)c1ccccc1C2=O)c1ccccc1 (stereo not drawn) [Dye No. 11-17, 1,4-Bis(α-methylbenzylamino)] | 3.5 days | 1.0% | 
9 | O=C1c2ccccc2C(=O)c2c(NC(c3ccccc3)c3ccccc3)ccc(NC(c3ccccc3)c3ccccc3)c21 [Dye No. 12-20, 1,4-Bis(diphenylmethylamino)] | 2.0 days | < 0.05% | 
10 | CCCCCCCCNc1ccc(NCCCCCCCC)c2c1C(=O)c1ccccc1C2=O [Dye No. 13-27, 1,4-Bis(n-octylamino)] | 4.4 days | 0.5% | 
11 | CCCCCCCCCCCCNc1ccc(NCCCCCCCCCCCC)c2c1C(=O)c1ccccc1C2=O [Dye No. 14-32, 1,4-Bis(n-dodecylamino)] | 2.3 days | 0.5% | 
12 | CC(C)(C)CNc1ccc(NCC(C)(C)C)c2c1C(=O)c1ccccc1C2=O [Dye No. 15-13, 1,4-Bis(neopentylamino)] | 3.4 days | < 1.0% | very unstable
13 | CN(c1ccccc1)c1ccc(N(C)c2ccccc2)c2c1C(=O)c1ccccc1C2=O [Dye No. 16-10, 1,4-Bis(N--methylanilino)] | 7.0 days | 0.1% | very unstable
14 | CCN(c1ccccc1)c1ccc(N(CC)c2ccccc2)c2c1C(=O)c1ccccc1C2=O [Dye No. 17-14, 1,4-Bis(N--ethylanilino)] | 4.5 days | 1.0% | very unstable
15 | CCCCc1ccc(N(C)c2ccc(N(C)c3ccc(CCCC)cc3)c3c2C(=O)c2ccccc2C3=O)cc1 [Dye No. 18-6, 1,4-Bis(N-methyl-4-n-butylanilino)anthraquinone] | 4.3 days | 0.1% | very unstable
16 | CCOc1ccc(N(C)c2ccc(N(C)c3ccc(OCC)cc3)c3c2C(=O)c2ccccc2C3=O)cc1 [Dye No. 19-9, 1,4-Bis(N--methyl-4-ethoxyanilino)] | 6.0 days | 0.1% | very unstable
17 | CCCCOc1ccc(N(C)c2ccc(N(C)c3ccc(OCCCC)cc3)c3c2C(=O)c2ccccc2C3=O)cc1 [Dye No. 20-12, 1,4-Bis(N--methyl-4-n-butoxyanilino)] | 4.0 days | 0.1% | very unstable
18 | CCCCc1ccc(Nc2ccc(Nc3ccc(C)cc3)c3c2C(=O)c2ccccc2C3=O)cc1 [Dye No. 21-11, 1-(4-n-butylanilino)-4-(p-toluidino)] | 7.7 days | 0.1% | 
19 | CCCCc1ccc(Nc2cc(C)c(Nc3ccc(CCCC)cc3)c3c2C(=O)c2ccccc2C3=O)cc1 [Dye No. 22-16, 1,4-Bis(4-n-butylanilino)-2-methyl] | 3.0 days | 1.0% | very unstable
20 | O=C1c2ccccc2C(=O)c2c(Nc3ccccc3C(F)(F)F)ccc(Nc3ccccc3C(F)(F)F)c21 [Dye No. 23-24, 1,4-Bis(2-trifluoro-methylanilino)] | 6.5 days | 0.5% | very unstable
